According to PubChem BioAssay (NCI):
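Grown in 96-well plates, cells were treated for 48 hours with each compound at five concentrations. Insufficient inhibition: endpoint recorded as highest concentration tested. TGI denotes the concentration required for complete inhibition of growth.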

Experiments:
Test in all cases: NCI tumour cell line growth inhibition, 48 h
[1] = tested on: DMS 273 small cell lung
[2] = tested on: DMS 114 small cell lung
[3] = tested on: KM20L2 colon
[4] = tested on: OVCAR-4 ovarian
[5] = tested on: OVCAR-3 ovarian
[6] = tested on: SNB-78 CNS
[7] = tested on: LXFL 529 NSCLC
[8] = tested on: SF-295 CNS
[9] = tested on: M19-MEL melanoma
[10] = tested on: RPMI-8226 leukemia
[11] = tested on: NCI-H460 lung
[12] = tested on: DLD-1 colon
[13] = tested on: XF 498 CNS
[14] = tested on: HOP-18 NSCLC
[15] = tested on: RXF-631 renal
[16] = tested on: DU-145 prostate

SMILES | TGI [1] [µM] | TGI [2] [µM] | TGI [3] [µM] | TGI [4] [µM] | TGI [5] [µM] | TGI [6] [µM] | TGI [7] [µM] | TGI [8] [µM] | TGI [9] [µM] | TGI [10] [µM] | TGI [11] [µM] | TGI [12] [µM] | TGI [13] [µM] | TGI [14] [µM] | TGI [15] [µM] | TGI [16] [µM]
Nc1ccc(C(=O)NN2C(=O)C(Cl)C2c2ccc([N+](=O)[O-])cc2)cc1 (centres undefined) | 17.5 | 11.2 | 27.4 | 26.4 | 18.4 | 51.7 | 18.2 | 28.3 | 28 | 42.8 | 22.1 | 21.8 | – | – | – | –
CC1CC(=O)C(CC(=O)O)C1C(C(=O)C(=O)Nc1c(C#N)cccc1[N+](=O)[O-])[N+](=O)[O-] (centres undefined) | – | > 100 | > 100 | > 100 | > 100 | > 100 | > 100 | > 100 | > 100 | > 100 | > 100 | > 100 | > 100 | – | – | –
CC(C)[Si](OCC1CC(C[C@H]2CC(C[C@H]3C[C@@H](CO[Si](C(C)C)(C(C)C)C(C)C)OC(C)(C)O3)OC(C)(C)O2)OC(C)(C)O1)(C(C)C)C(C)C (some centres undefined) | > 100 | > 100 | > 100 | > 100 | > 100 | > 100 | – | > 100 | > 100 | > 100 | > 100 | > 100 | – | > 100 | – | –
O=C1SC(c2ccccc2)(c2ccccc2)c2ccccc21 | > 100 | 94.4 | > 100 | > 100 | > 100 | > 100 | > 100 | > 100 | > 100 | > 100 | > 100 | > 100 | > 100 | > 100 | – | –
O=C(O)C(Cc1cnc[nH]1)N=Cc1nc(-c2ccccc2)oc1O (centres undefined) | > 100 | > 100 | > 100 | > 100 | > 100 | > 100 | > 100 | > 100 | > 100 | > 100 | > 100 | > 100 | > 100 | – | – | –
Cc1ccc([N+](=O)[O-])cc1NC(=O)C(=O)Cc1cc(=O)oc2cc(O)ccc12 | – | 36.3 | > 100 | > 100 | > 100 | > 100 | > 100 | > 100 | > 100 | 75.3 | > 100 | > 100 | > 100 | > 100 | – | –
CC(C)C(Sc1nc(-c2ccccc2)c(-c2ccccc2)[nH]1)C(=O)N/N=C/c1ccc([N+](=O)[O-])cc1 (centres undefined) | 27.5 | 68.2 | 32.9 | 80.5 | 21.3 | > 100 | 33.8 | 33.9 | 23.8 | 47.6 | 34.1 | > 100 | 41 | – | – | –
Cc1ccc(S(=O)(=O)N/N=C/c2oc(-c3ccccc3Cl)c(-c3ccccc3Cl)c2[N+](=O)[O-])cc1 | – | 76.7 | 37.9 | > 100 | > 100 | – | – | > 100 | 65 | 30.3 | 29.9 | 47.9 | – | – | 60.3 | –
CCOP(=O)(OCC)/C(C#N)=C/c1ccc[nH]1 | > 100 | > 100 | > 100 | > 100 | > 100 | > 100 | > 100 | > 100 | > 100 | > 100 | > 100 | > 100 | – | > 100 | – | –
COc1cc2c(oc(=O)c3cc4ccoc4c(OC)c32)c2cccc(O)c12 | > 100 | > 100 | > 100 | > 100 | > 100 | > 100 | > 100 | > 100 | > 100 | > 100 | > 100 | > 100 | > 100 | > 100 | – | –
Cc1nc2c(n1CCC(C)C)C(=O)c1ccccc1C2=O | 29.4 | – | > 100 | > 100 | 71.4 | > 100 | > 100 | 67.3 | 28.5 | – | 21.1 | > 100 | 36.4 | – | – | –
Cc1ccc(NC(=O)C(=O)C2NC(=S)NC2=O)c([N+](=O)[O-])c1 (centres undefined) | > 100 | > 100 | > 100 | > 100 | > 100 | > 100 | > 100 | > 100 | > 100 | > 100 | > 100 | > 100 | > 100 | > 100 | – | –
COc1ccc(CC2NCCc3cc(OC)c(OC)cc32)cc1 (centres undefined) | > 100 | > 100 | > 100 | > 100 | > 100 | > 100 | > 100 | > 100 | > 100 | > 100 | > 100 | > 100 | > 100 | > 100 | > 100 | –
CCN(CC)CCC(=O)N1CCc2c([nH]c3ccccc23)C1c1cccnc1 (centres undefined) | > 100 | > 100 | > 100 | > 100 | > 100 | > 100 | > 100 | > 100 | > 100 | > 100 | > 100 | > 100 | > 100 | > 100 | – | –
O=C1c2ccccc2C(=O)C2C3c4ccccc4C(c4ccccc43)C12 (centres undefined) | 39.4 | 42.7 | > 100 | – | 45.8 | 51.3 | 37.2 | 31.5 | 40 | 25.7 | > 100 | > 100 | – | – | – | –
C[N+](C)(C)Cc1c(CC#N)[nH]c2ccccc12 | > 100 | > 100 | > 100 | > 100 | > 100 | – | > 100 | > 100 | > 100 | > 100 | > 100 | > 100 | > 100 | – | – | –
COP(=O)(OC)C(O)/C=C(\Cl)c1ccc(Cl)cc1 (centres undefined) | – | – | – | > 100 | 43.3 | – | – | > 100 | – | 63.4 | > 100 | – | – | – | – | > 100
CC(=O)OC1(C#N)CC2OC1C1C2N1C(=O)OC(C)(C)C (centres undefined) | – | > 100 | > 100 | > 100 | – | > 100 | > 100 | – | > 100 | > 100 | > 100 | > 100 | > 100 | – | – | –
Cc1cc(NS(=O)(=O)c2ccc(NC(=O)c3cccc4cc5ccccc5nc34)cc2)no1 | 32.4 | 49.2 | 75.1 | 39.7 | 45.5 | 69.6 | 31.5 | 59.1 | 74.3 | 55.9 | 72.2 | 52.1 | 33.6 | – | 37.5 | –
c1cc2cc(c1)CN1CCNCCN(CCNCC1)Cc1cccc(c1)CN1CCNCCN(CCNCC1)C2 | – | – | – | > 100 | > 100 | – | – | > 100 | – | > 100 | > 100 | – | – | – | – | > 100
